Measured values from publication PMC6248945, “Antibacterial properties of the pituitary adenylate cyclase-activating polypeptide: A new human antimicrobial peptide” (PLoS ONE, 2018).
Converted amounts (≈) assume the structure as drawn. Where a SMILES comes first, the peptide text is derived from it. [ ]: non-standard residue; d: D form. Tic = O=C(O)[C@@H]1Cc2ccccc2CN1

Columns and labels:
[1] = system: Bacillus cereus (ATCC11778); details: ATCC11778, 20 h
[2] = system: Burkholderia cenocepacia (LMG18829); details: LMG18829, 20 h
[3] = system: Burkholderia cenocepacia (CEP0511 Gvar3b); details: CLSI microdilution, MHB, 37 °C, 20h, OD read-out; at least triplicate
[4] = system: Burkholderia cenocepacia (K56-2); details: 20 h
[5] = system: Pseudomonas putida (KT2440); details: 20 h
[6] = system: Pseudomonas fluorescens (MF37); details: 20 h
[7] = system: Bacillus circulans (LSPQ3543); details: 20 h
[8] = system: Escherichia coli ATCC25922; details: ATCC25922, 20 h
[9] = system: Staphylococcus aureus (ATCC6538#P); details: ATCC6538, 20 h
[10] = system: Burkholderia thailendensis (ATCC700388); details: CLSI microdilution, MHB, 37 °C, 20h, OD read-out; at least triplicate
[11] = system: Actinobacillus pleuropneumoniae (4074); details: 20 h
[12] = relative to PACAP38; cited from earlier work
[13] = system: Escherichia coli (O157 :H7); details: CLSI microdilution, MHB, 37 °C, 20h, OD read-out; at least triplicate
Bacillus subtilis (PY79) = details: PY79, 20 h
[14] = system: Serratia marcescens (ATCC14756); details: ATCC14756, 20 h
Bacillus subtilis (2597) = details: 2597, 20 h
[15] = system: Pseudomonas aeruginosa (PA14); details: PA14, 20 h
DPP-IV = system: DPP-IV; design: method as in PMID 18353507; details: cited from earlier work
[16] = system: Burkholderia cenocepacia (J2315); details: 20 h
Bacillus velezensis = details: 20 h
[17] = system: Pseudomonas aeruginosa (ATCC33350-Sero-2); details: ATCC33350, 20 h
[18] = system: Burkholderia cenocepacia (LMG19240); details: CLSI microdilution, MHB, 37 °C, 20h, OD read-out; at least triplicate
[19] = system: Bacillus amyloliquefaciens (LMG22478); details: LMG22478, 20 h
[20] = system: Staphylococcus aureus (Newman); details: 20 h
Escherichia coli (JM109) = experiment: MIC, CLSI microdilution; format: cell-based; details: MHB, 37 °C, 20h, OD read-out, at least triplicate
Protocol: Assays were performed according to the CLSI microdilution method. Briefly, the bacterial strains were inoculated and allowed to reach an OD600 of 0.08–0.13 prior to dilution to 10^6 CFU/mL in Mueller-Hinton broth (MHB). A bacterial suspension (50 μL) was then added to each well of a 96-well microplate containing serially diluted peptide solutions (50 μL in MHB) and incubated at 37 °C for 20h. A well containing sterilized medium was used as a sterility control and another well containing no added peptide served as a growth control.

SMILES	MIC, Bacillus cereus (ATCC11778) [1]	MIC, Burkholderia cenocepacia (LMG18829) [2]	MIC, Burkholderia cenocepacia (CEP0511 Gvar3b) [3]	MIC, Burkholderia cenocepacia (K56-2) [4]	MIC, Pseudomonas putida (KT2440) [5]	MIC, Pseudomonas fluorescens (MF37) [6]	MIC, Bacillus circulans (LSPQ3543) [7]	MIC, Escherichia coli ATCC25922 [8]	MIC, Staphylococcus aureus (ATCC6538#P) [9]	MIC, Burkholderia thailendensis (ATCC700388) [10]	MIC, Actinobacillus pleuropneumoniae [11]	MIC, Escherichia coli (O157 :H7) [13]	MIC, Bacillus subtilis (PY79) (Bacillus subtilis (PY79))	MIC, Serratia marcescens (ATCC14756) [14]	MIC, Bacillus subtilis (2597) (Bacillus subtilis (2597))	MIC, Pseudomonas aeruginosa (PA14) [15]	MIC, Burkholderia cenocepacia (J2315) [16]	MIC, Bacillus velezensis (Bacillus velezensis)	MIC, Bacillus amyloliquefaciens [19]	MIC, Escherichia coli (JM109) (Escherichia coli (JM109))	also measured
CCCCCC(=O)N[C@@H](Cc1c[nH]cn1)C(=O)N[C@@H](CO)C(=O)N[C@@H](CC(=O)O)C(=O)NCC(=O)N[C@H](C(=O)N[C@@H](Cc1ccccc1)C(=O)N[C@H](C(=O)N[C@@H](CC(=O)O)C(=O)N[C@@H](CO)C(=O)N[C@@H](Cc1ccc(O)cc1)C(=O)N[C@@H](CO)C(=O)N[C@@H](CCCNC(=N)N)C(=O)N[C@@H](Cc1ccc(O)cc1)C(=O)N[C@@H](CCCNC(=N)N)C(=O)N[C@@H](CCCCN)C(=O)N[C@@H](CCC(N)=O)C(=O)N[C@@H](CCSC)C(=O)N[C@@H](C)C(=O)N[C@H](C(=O)N[C@@H](CCCCN)C(=O)N[C@@H](CCCCN)C(=O)N[C@@H](Cc1ccc(O)cc1)C(=O)N[C@@H](CC(C)C)C(=O)N[C@@H](C)C(=O)N[C@@H](C)C(=O)N[C@H](C(=O)N[C@@H](CC(C)C)C(=O)NCC(=O)N[C@@H](CCCCN)C(=O)N[C@@H](CCCNC(=N)N)C(=O)N[C@@H](Cc1ccc(O)cc1)C(=O)N[C@@H](CCCCN)C(=O)N[C@@H](CCC(N)=O)C(=O)N[C@@H](CCCNC(=N)N)C(=O)N[C@H](C(=O)N[C@@H](CCCCN)C(=O)N[C@@H](CC(N)=O)C(=O)N[C@@H](CCCCN)C(N)=O)C(C)C)C(C)C)C(C)C)[C@@H](C)O)[C@@H](C)CC [compound 2, N-hexanoyl-PACAP38]	>200 µg/mL	>200 µg/mL	>200 µg/mL	>200 µg/mL	77 µg/mL (≈ 16.6 µM)	>200 µg/mL	58 µg/mL (≈ 12.5 µM)	>200 µg/mL	>200 µg/mL	>200 µg/mL	232 µg/mL (≈ 50.1 µM)	>200 µg/mL	12 µg/mL (≈ 2.59 µM)	>200 µg/mL	154 µg/mL (≈ 33.2 µM)	>200 µg/mL	10 µg/mL (≈ 2.16 µM)	87 µg/mL (≈ 18.8 µM)	26 µg/mL (≈ 5.61 µM)	116 µg/mL (≈ 25 µM)	Metabolic stability in human plasma [12]: improved metabolic stability; Metabolic stability against DPP-IV (DPP-IV): improved metabolic stability; MIC, Pseudomonas aeruginosa (ATCC33350-Sero-2) [17]: >200 µg/mL; MIC, Burkholderia cenocepacia (LMG19240) [18]: >200 µg/mL; MIC, Staphylococcus aureus (Newman) [20]: >200 µg/mL
CC[C@H](C)[C@H](NC(=O)CNC(=O)[C@H](CC(=O)O)NC(=O)[C@H](CO)NC(=O)[C@@H](N)Cc1c[nH]cn1)C(=O)N1Cc2ccccc2C[C@H]1C(=O)N[C@H](C(=O)N[C@@H](CC(=O)O)C(=O)N[C@@H](CO)C(=O)N[C@@H](Cc1ccc(O)cc1)C(=O)N[C@@H](CO)C(=O)N[C@@H](CCCNC(=N)N)C(=O)N[C@@H](Cc1ccc(O)cc1)C(=O)N[C@@H](CCCNC(=N)N)C(=O)N[C@@H](CCCCN)C(=O)N[C@@H](CCC(N)=O)C(=O)N[C@@H](CCSC)C(=O)N[C@@H](C)C(=O)N[C@H](C(=O)N[C@@H](CCCCN)C(=O)N[C@@H](CCCCN)C(=O)N[C@@H](Cc1ccc(O)cc1)C(=O)N[C@@H](CC(C)C)C(=O)N[C@@H](C)C(=O)N[C@@H](C)C(=O)N[C@H](C(=O)N[C@@H](CC(C)C)C(=O)NCC(=O)N[C@@H](CCCCN)C(=O)N[C@@H](CCCNC(=N)N)C(=O)N[C@@H](Cc1ccc(O)cc1)C(=O)N[C@@H](CCCCN)C(=O)N[C@@H](CCC(N)=O)C(=O)N[C@@H](CCCNC(=N)N)C(=O)N[C@H](C(=O)N[C@@H](CCCCN)C(=O)N[C@@H](CC(N)=O)C(=O)N[C@@H](CCCCN)C(N)=O)C(C)C)C(C)C)C(C)C)[C@@H](C)O [compound 7, [Tic^6]PACAP38] (H-HSDGI[Tic]TDSYSRYRKQMAVKKYLAAVLGKRYKQRVKNK-NH2)	>200 µg/mL	>200 µg/mL	>200 µg/mL	>200 µg/mL	33 µg/mL (≈ 7.26 µM)	>200 µg/mL	6 µg/mL (≈ 1.32 µM)	>200 µg/mL	>200 µg/mL	>200 µg/mL	>200 µg/mL	>200 µg/mL	7 µg/mL (≈ 1.54 µM)	>200 µg/mL	>200 µg/mL	>200 µg/mL	2 µg/mL (≈ 0.44 µM)	71 µg/mL (≈ 15.6 µM)	21 µg/mL (≈ 4.62 µM)	>200 µg/mL	MIC, Pseudomonas aeruginosa (ATCC33350-Sero-2) [17]: >200 µg/mL; MIC, Burkholderia cenocepacia (LMG19240) [18]: >200 µg/mL; MIC, Staphylococcus aureus (Newman) [20]: >200 µg/mL
CSCC[C@H](NC(=O)[C@H](CCC(N)=O)NC(=O)[C@H](CCCCN)NC(=O)[C@H](CCCNC(=N)N)NC(=O)[C@H](Cc1ccc(O)cc1)NC(=O)[C@H](CCCNC(=N)N)NC(=O)[C@H](CO)NC(=O)[C@H](Cc1ccc(O)cc1)NC(=O)[C@@H](N)CO)C(=O)N[C@@H](C)C(=O)N[C@H](C(=O)N[C@@H](CCCCN)C(=O)N[C@@H](CCCCN)C(=O)N[C@@H](Cc1ccc(O)cc1)C(=O)N[C@@H](CC(C)C)C(=O)N[C@@H](C)C(=O)N[C@@H](C)C(=O)N[C@H](C(=O)N[C@@H](CC(C)C)C(=O)NCC(=O)N[C@@H](CCCCN)C(=O)N[C@@H](CCCNC(=N)N)C(=O)N[C@@H](Cc1ccc(O)cc1)C(=O)N[C@@H](CCCCN)C(=O)N[C@@H](CCC(N)=O)C(=O)N[C@@H](CCCNC(=N)N)C(=O)N[C@H](C(=O)N[C@@H](CCCCN)C(=O)N[C@@H](CC(N)=O)C(=O)N[C@@H](CCCCN)C(N)=O)C(C)C)C(C)C)C(C)C [compound 10, PACAP(9–38)] (H-SYSRYRKQMAVKKYLAAVLGKRYKQRVKNK-NH2)	–	–	–	>183 µg/mL	>183 µg/mL	–	–	–	–	–	>183 µg/mL	–	>183 µg/mL	–	>183 µg/mL	–	19 µg/mL (≈ 5.19 µM)	–	>183 µg/mL	>183 µg/mL	–
